Test results published in the supplement of paper PMC10307832.

Experiments:
Experiment in all cases: relative viability (nuclei count vs DMSO), 5 days (fraction); higher = more cells survive
RO-3306 + OSI-027 = compound: C1=CC2=C(C=CC(=C2)C=C3C(=O)NC(=NCC4=CC=CS4)S3)N=C1 [RO-3306] + COc1cccc2cc(-c3nc([C@H]4CC[C@H](C(=O)O)CC4)n4ncnc(N)c34)[nH]c12 [OSI-027] (partner 0.5 µM)
Method in brief: (§1)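 For relative viability, nuclei counts in treated wells were divided by those in vehicle wells. Lung cancer cell lines had been pin-tool dosed in 1536-well plates the day after seeding and cultured for 5 days, then fixed and stained in one step (final 0.05% Triton X-100, 1% formaldehyde, 1 ug/ml Hoechst) and imaged at 4×. Doses were one drug alone or a fixed anchor-drug dose plus five library-drug doses (not always all listed) in √10 steps, and values are duplicate-plate medians.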

RO-3306 + AZD7762 = compound: C1=CC2=C(C=CC(=C2)C=C3C(=O)NC(=NCC4=CC=CS4)S3)N=C1 [RO-3306] + NC(=O)Nc1cc(-c2cccc(F)c2)sc1C(=O)N[C@H]1CCCNC1 [AZD7762] (partner 0.2 µM)
Method in brief: as §1

[1] = compound: O=S(=O)(c1ccccc1)N(CC(F)(F)F)c1ccc(C(O)(C(F)(F)F)C(F)(F)F)cc1 + COc1cc2c(Oc3ccc(NC(=O)C4(C(=O)Nc5ccc(F)cc5)CC4)cc3F)ccnc2cc1OCCCN1CCOCC1 [Foretinib] (partner 0.25 µM)
Method in brief: as §1

[2] = compound: O=S(=O)(c1ccccc1)N(CC(F)(F)F)c1ccc(C(O)(C(F)(F)F)C(F)(F)F)cc1 + Cc1cc(Nc2cc(N3CCN(C)CC3)nc(Sc3ccc(NC(=O)C4CC4)cc3)n2)n[nH]1 [Tozasertib] (partner 0.1 µM)
Method in brief: as §1

Cell Line | relative viability (RO-3306 + OSI-027; first compound 0.01 µM) | relative viability (RO-3306 + OSI-027; first compound 0.03162 µM) | relative viability (RO-3306 + OSI-027; first compound 0.1 µM) | relative viability (RO-3306 + OSI-027; first compound 0.3162 µM) | relative viability (RO-3306 + OSI-027; first compound 1 µM) | relative viability (RO-3306 + AZD7762; first compound 0.01 µM) | relative viability (RO-3306 + AZD7762; first compound 0.03162 µM) | relative viability (RO-3306 + AZD7762; first compound 0.1 µM) | relative viability (RO-3306 + AZD7762; first compound 0.3162 µM) | relative viability (RO-3306 + AZD7762; first compound 1 µM) | relative viability ([1]; first compound 0.8 µM) | relative viability ([1]; first compound 2.53 µM) | relative viability ([1]; first compound 8 µM) | relative viability ([2]; first compound 0.8 µM) | relative viability ([2]; first compound 2.53 µM) | relative viability ([2]; first compound 8 µM)
LC-2-ad | 0.863 | 0.735 | 0.781 | 0.932 | 0.849 | 0.86 | 0.842 | 0.826 | 0.823 | 0.647 | 1.06 | 0.912 | 0.867 | 0.496 | 0.492 | 0.474
NCI-H650 | 0.473 | 0.471 | 0.492 | 0.483 | 0.501 | 0.874 | 0.911 | 0.943 | 1.05 | 0.952 | 1.18 | 1.05 | 1.07 | 0.778 | 0.771 | 0.748
LXF-289 | 0.801 | 0.778 | 0.681 | 0.739 | 0.63 | 1.08 | 0.993 | 1.17 | 0.973 | 1.22 | 0.993 | 0.88 | 0.812 | 0.213 | 0.203 | 0.153
HCC-78 | 0.324 | 0.401 | 0.384 | 0.404 | 0.329 | 0.536 | 0.498 | 0.595 | 0.682 | 0.513 | 0.533 | 0.459 | 0.466 | 0.691 | 0.375 | 0.433
NCI-H2342 | 0.664 | 0.559 | 0.616 | 0.575 | 0.596 | 0.437 | 0.448 | 0.524 | 0.536 | 0.464 | 1.15 | 1.03 | 0.951 | 0.483 | 0.609 | 0.493
